Literature values in US9050341B2, “Methods of treating drug resistant and other tumors by administering 6,7-dialkoxy quinazoline derivatives” (NATCO PHARMA LIMITED, priority 2009, dated 2015).
Structures can show the parent of a compound that is named as a salt.

Conditions: beagle dogs; source not stated; cited from earlier work

Structure (SMILES): C#Cc1cccc(Nc2ncnc3cc(OCCOC)c(OCCOC)cc23)c1 [Erlotinib HCl, N-(3-Ethylnylphenyl)-6,7-bis(2-methoxyethoxy)-4-quinazolinamine]
- no observed adverse effect level (NOAEL), corresponding value: 5 mg/kg b.wt/day
